Source: US12171729B2, “Formulations of terameprocol and temozolomide and their use in stimulation of humoral immunity in tumors” (The Johns Hopkins University, priority 2019, dated 2024)

What was measured:
[1] = system: LN229 tumor xenograft mice; assay: Cytokine profiles in serum of treated LN229 xenograft nude mice; format: in vivo, mouse; conditions: sera from LN229 tumor xenograft mice
[2] = system: LN229 tumors; assay: Metabolite analysis (Metabolon) of LN229 tumor samples; format: in vivo, mouse; conditions: EM+M4N+TMZ1/2 versus EM+TMZ1/2 schedule
[3] = system: Kras G12D mice; conditions: mouse, in vivo, po
From the text: FIG. 13 depicts MRI of lung tumors in mice. The axial images were taken by 9.4 T MRI; RARE T2-weighted; slice thickness=1 mm; total slice number=24. The scan started from neck to bottom of ribs. The tumor size ≥1 mm is detectable by this scan. H, heart; S, spine; Arrow: lung tumor;
In the present Kras-driven lung cancer model, since mice carry homozygous mutant Kras are embryonic lethal, all Kras mice bred are heterozygous Kras^+/G12D that one genetic engineering allele can synthesize the Kras G12D protein by “hit-and-run” recombination and cause cancers spontaneously (FIG. 11A). According to previous reports and experience, lung lesions could be found in mice as young as one-week old. In this group of mice, 100% of the mice will develop lung cancer between 15 to 40 weeks of age (FIG. 11B), and about 30% may also develop thymic lymphoma and papilloma (Nature; 410:6832; 1111-6, 2001). […]
In this study, 10-week old, female, Kras G12D mice were chosen; which lung cancer had not been well developed in at this age. […] After consecutive treatments for 120 days, treatment for mice that reached 28 weeks old was stopped in both groups and the mice were monitored and weighed continuously. […]

[4] = system: LN229 tumors; assay: Immune cells infiltration in LN229 tumors from xenograft mice; format: in vivo, mouse
[5] = daily (1 mg/day) IV injection, nude mice carrying human tumor xenografts; cited from earlier work
[6] = oral administration, short-term and long-term feeding; cited from earlier work
[7] = system: malignant gliomas; conditions: cited from earlier work

| SMILES | level of IL-21 in sera (in words) [1] | effect on metabolic pathways of the tumor [2] | weight loss during treatment [3] | tumor infiltrating immune cells in the tumor microenvironment [4] | M4N levels accumulated in blood and tumors [5] | M4N concentration in mouse organs [6] | survival rate at 2 years ([7]; radiotherapy and chemotherapy, radiotherapy alone 10.4%) [%] | dose-limiting toxicity ([7]; systemic exposure, specifically thrombocytopenia and neutropenia) |
| --- | --- | --- | --- | --- | --- | --- | --- | --- |
| COc1ccc(C[C@@H](C)[C@@H](C)Cc2ccc(OC)c(OC)c2)cc1OC [M4N, Tetra-O-methyl nordihydroguaiaretic acid] | significantly increased | suppressed most of the metabolic pathways | no significant weight loss | Tumor infiltrating macrophages and B cells | above 1 mM | ≤ 906 μg/g of tissue | – | – |
| Cn1nnc2c(C(N)=O)ncn2c1=O [TMZ, 3,4-dihydro-3-methyl-4-oxoimidazo[5,1-d]-1,2,3,5-tetrazine-8-carboxamide] | – | – | – | – | – | – | 26.5 | hematological toxicity |
